Measurements as given in ChEMBL document CHEMBL1124587 (J Med Chem, 1989).

How the values were obtained:
[1] = Inhibition of binding of [3H]strychnine to glycine receptor in rat
[2] = biological target: Glycine receptor (Rattus norvegicus); test: Inhibition of binding of [3H]strychnine to glycine receptor
[3] = Partition coefficient (logD); conditions: octanol/water

SMILES | logP [3] | other results
NCC(=O)O [GLYCINE] |  | IC50 [1]: 6 µM
Nc1c(C(F)(F)F)n[nH]c1O |  | IC50 [2]: 418 µM
CNCC(=O)O [SARCOSINE] |  | IC50 [1]: 350 µM
Oc1coc2cc[nH]c12 | 1.07 | 
Nc1ccccc1O [QUESTIOMYCIN B] | 0.65 | 
COc1ccc(-c2[nH]nc(O)c2N)cc1 | 0.85 | 
Oc1coc2[nH]cnc12 | 0.33 | 
